Test results published in ChEMBL document CHEMBL2311245, “Hypoxia-selective O6-alkylguanine-DNA alkyltransferase inhibitors: design, synthesis, and evaluation of 6-(benzyloxy)-2-(aryldiazenyl)-9H-purines as prodrugs of O6-benzylguanine” (J Med Chem, 2013).
Active and inactive are the calls of the source. No cut-off for these calls is given here.

Key:
Format in all cases: cell-based
[1] = target: T1, Methylated-DNA--protein-cysteine methyltransferase (Homo sapiens) (UniProt P16455); assay: Inhibition of AGT in human DU145 cells assessed as potentiation of laromustine-induced cytotoxicity under normoxic condition up to 50 uM treated 4 hrs prior to laromustine treatment measured after 24 hrs by clonogenic assay; settings: DU-145
T1 sequence (whole entry): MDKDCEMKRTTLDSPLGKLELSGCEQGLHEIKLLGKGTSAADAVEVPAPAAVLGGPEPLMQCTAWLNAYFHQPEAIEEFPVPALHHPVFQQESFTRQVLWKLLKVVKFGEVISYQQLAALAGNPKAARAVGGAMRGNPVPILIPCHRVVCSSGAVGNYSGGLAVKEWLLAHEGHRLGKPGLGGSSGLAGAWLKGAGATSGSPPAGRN

[2] = target: T1, Methylated-DNA--protein-cysteine methyltransferase (Homo sapiens); assay: Inhibition of AGT in human DU145 cells assessed as potentiation of laromustine-induced cytotoxicity under hypoxic condition up to 50 uM treated 4 hrs prior to laromustine treatment measured after 24 hrs by clonogenic assay; settings: DU-145
EMT6 = assay: Prodrug activation in mouse EMT6 cells assessed as O6-benzylguanine formation under normoxic condition at 50 uM after 3 hrs by HPLC analysis; settings: emt6, 3 h
[3] = target: T1, Methylated-DNA--protein-cysteine methyltransferase (Homo sapiens); assay: Inhibition of AGT in human DU145 cells assessed as potentiation of laromustine-induced cytotoxicity under hypoxic condition at >10 uM treated 4 hrs prior to laromustine treatment measured after 24 hrs by clonogenic assay; settings: DU-145
[4] = target: T1, Methylated-DNA--protein-cysteine methyltransferase (Homo sapiens); assay: Inhibition of AGT in human DU145 cells assessed as potentiation of laromustine-induced cytotoxicity under normoxic condition up to 10 uM treated 4 hrs prior to laromustine treatment measured after 24 hrs by clonogenic assay; settings: DU-145
[5] = target: T1, Methylated-DNA--protein-cysteine methyltransferase (Homo sapiens); assay: Inhibition of AGT in human DU145 cells assessed as potentiation of laromustine-induced cytotoxicity under hypoxic condition up to 10 uM treated 4 hrs prior to laromustine treatment measured after 24 hrs by clonogenic assay; settings: DU-145
DU-145 = assay: Prodrug activation in human DU145 cells assessed as O6-benzylguanine formation under normoxic condition at 50 uM over 3 hrs by HPLC analysis; settings: du-145, 3 h

Structure (SMILES)	inhibition [1]	inhibition [2]	Drug metabolism (EMT6)	inhibition [3]	inhibition [4]	inhibition [5]	Drug metabolism (DU-145)
CN1CCN(c2ccc(/N=N/c3nc(OCc4ccccc4)c4nc[nH]c4n3)cc2)CC1	inactive	Active					
CN(C)c1ccc(/N=N/c2nc(OCc3ccccc3)c3nc[nH]c3n2)cc1			Not Active	Active	inactive	Active	Not Active
